Activity calls are given as the source filed them.
Key:
[1] = biological target: T1, Short transient receptor potential channel 4 (Mus musculus, UniProt Q9QUQ5); test: block of DAMGO-driven TRPC4 calcium entry – cell-based, HEK293 TRPC4/mu-opioid, Fluo-4 calcium, dose response (AID 434942); format: functional;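 also: potency of inhibitors blocking the TRPC4 calcium response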
T1 sequence (Q9QUQ5 whole entry): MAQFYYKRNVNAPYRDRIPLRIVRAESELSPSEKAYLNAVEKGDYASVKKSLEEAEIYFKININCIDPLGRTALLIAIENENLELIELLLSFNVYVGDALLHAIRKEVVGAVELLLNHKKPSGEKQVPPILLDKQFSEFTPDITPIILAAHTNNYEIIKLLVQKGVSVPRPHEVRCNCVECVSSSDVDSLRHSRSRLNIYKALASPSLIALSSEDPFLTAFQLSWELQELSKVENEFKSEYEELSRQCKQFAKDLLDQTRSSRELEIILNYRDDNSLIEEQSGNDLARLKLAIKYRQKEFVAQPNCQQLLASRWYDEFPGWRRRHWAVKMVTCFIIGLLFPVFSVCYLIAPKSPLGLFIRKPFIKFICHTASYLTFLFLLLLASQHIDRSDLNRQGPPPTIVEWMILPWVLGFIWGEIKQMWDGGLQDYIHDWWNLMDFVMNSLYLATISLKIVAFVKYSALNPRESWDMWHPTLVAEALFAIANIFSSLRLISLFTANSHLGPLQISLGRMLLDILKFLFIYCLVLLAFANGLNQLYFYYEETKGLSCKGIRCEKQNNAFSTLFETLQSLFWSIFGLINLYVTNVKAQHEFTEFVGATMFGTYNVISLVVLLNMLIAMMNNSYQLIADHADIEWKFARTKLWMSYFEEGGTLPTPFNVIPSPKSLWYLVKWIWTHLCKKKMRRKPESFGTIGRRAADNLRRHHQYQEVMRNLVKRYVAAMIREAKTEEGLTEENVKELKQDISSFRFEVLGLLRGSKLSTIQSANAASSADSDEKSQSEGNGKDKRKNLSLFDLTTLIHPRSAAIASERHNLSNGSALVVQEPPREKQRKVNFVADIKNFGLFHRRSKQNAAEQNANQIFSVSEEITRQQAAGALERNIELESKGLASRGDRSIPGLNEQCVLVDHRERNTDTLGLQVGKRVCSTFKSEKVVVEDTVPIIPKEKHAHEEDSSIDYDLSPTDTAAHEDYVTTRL

[2] = test system: HEK293; test: NOD2 signaling inhibitors in MDP-stimulated cells, cell-based, uHTS, luminescence (AID 2001); format: functional; conditions: Homo sapiens
[3] = test system: HEK293; test: inhibition of NOD1-driven NF-kB reporter – cell-based, luminescence, uHTS, primary screen (AID 1578); format: functional; conditions: Homo sapiens
[4] = biological target: T2, Replicative DNA helicase DnaB (Mycobacterium tuberculosis, UniProt P9WMR3); test: DnaB intein splicing inhibitors, dose response, biochemical, cell-free fluorescence (AID 449749); format: functional
T2 sequence (P9WMR3 whole entry): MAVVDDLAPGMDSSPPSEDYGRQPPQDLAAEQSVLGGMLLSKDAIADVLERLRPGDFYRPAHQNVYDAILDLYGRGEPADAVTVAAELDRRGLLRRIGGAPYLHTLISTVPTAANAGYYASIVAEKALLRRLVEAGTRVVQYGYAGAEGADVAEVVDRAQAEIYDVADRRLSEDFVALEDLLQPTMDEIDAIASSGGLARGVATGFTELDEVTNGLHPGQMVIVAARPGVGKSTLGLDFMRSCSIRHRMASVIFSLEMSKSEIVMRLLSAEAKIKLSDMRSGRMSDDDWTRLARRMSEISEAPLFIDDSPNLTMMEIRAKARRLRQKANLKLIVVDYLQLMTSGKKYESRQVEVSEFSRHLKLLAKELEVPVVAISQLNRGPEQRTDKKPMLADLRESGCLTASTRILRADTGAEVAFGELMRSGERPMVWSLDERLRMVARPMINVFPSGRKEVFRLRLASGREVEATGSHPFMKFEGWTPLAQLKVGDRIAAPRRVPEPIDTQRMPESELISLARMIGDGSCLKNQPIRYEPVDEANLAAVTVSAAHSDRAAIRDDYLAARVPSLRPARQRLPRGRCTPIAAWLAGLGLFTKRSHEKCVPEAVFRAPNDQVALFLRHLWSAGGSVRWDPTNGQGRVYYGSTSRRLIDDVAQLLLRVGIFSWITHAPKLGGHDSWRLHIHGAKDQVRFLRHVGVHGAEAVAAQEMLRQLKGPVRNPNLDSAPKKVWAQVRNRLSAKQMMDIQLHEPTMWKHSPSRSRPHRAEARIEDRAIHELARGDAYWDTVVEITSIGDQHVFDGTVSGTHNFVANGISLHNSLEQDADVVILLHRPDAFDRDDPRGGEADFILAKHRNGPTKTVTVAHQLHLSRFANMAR

[5] = biological target: T3, Protein RecA (Mycobacterium tuberculosis, UniProt P9WHJ3); test: Fluorescence Cell-Free Homogeneous Dose Retest to Identify Inhibitors of RecA-Intein Splicing Activity. [Related pubchem assays (depositor defined):AID2097, AID2223, AID489010, AID492950]; format: functional
T3 sequence (P9WHJ3 whole entry): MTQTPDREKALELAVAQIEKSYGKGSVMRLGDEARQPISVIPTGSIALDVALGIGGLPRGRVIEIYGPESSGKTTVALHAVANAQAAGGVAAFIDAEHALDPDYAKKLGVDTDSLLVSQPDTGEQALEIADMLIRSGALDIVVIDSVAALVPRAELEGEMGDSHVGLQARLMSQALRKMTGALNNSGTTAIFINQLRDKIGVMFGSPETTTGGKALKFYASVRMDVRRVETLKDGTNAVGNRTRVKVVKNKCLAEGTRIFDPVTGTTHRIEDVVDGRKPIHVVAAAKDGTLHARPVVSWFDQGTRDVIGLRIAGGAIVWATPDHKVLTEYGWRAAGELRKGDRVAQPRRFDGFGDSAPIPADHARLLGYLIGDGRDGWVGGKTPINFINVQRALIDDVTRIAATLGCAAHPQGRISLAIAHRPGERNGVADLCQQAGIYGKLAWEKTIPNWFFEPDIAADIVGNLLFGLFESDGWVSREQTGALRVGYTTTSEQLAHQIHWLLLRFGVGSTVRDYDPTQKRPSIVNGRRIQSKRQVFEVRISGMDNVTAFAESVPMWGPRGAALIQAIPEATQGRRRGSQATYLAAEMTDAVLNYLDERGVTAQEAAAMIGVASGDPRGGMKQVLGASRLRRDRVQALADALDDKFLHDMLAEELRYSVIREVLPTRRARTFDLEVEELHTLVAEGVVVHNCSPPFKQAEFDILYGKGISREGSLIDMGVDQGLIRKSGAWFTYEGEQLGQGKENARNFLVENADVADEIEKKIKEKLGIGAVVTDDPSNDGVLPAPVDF

[6] = test system: INS1; test: INS-1E survival protection against cytokine death – cell-based, luminescence, retest, dose response (AID 449756); format: functional; conditions: Rattus norvegicus;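 also: cell death triggered by IL-1 beta plus TNF-alpha plus IFN-gamma mixture; protective hits raise ATP signal compared with cytokine alone wells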
[7] = test system: HEK293; test: cells; format: functional, cell-based; conditions: Homo sapiens
[8] = test system: HEK293; test: cells; format: functional, cell-based; conditions: Homo sapiens; remark: listed apart in the source
[9] = Luminescence Cell-Based Dose Confirmation HTS to Identify Inhibitors of Platelet Dense Granule Release. [Related pubchem assays: 1663 (Primary HTS), 1678 (Summary of Project)]; format: functional
[10] = biological target: Luciferin 4-monooxygenase (Photinus pyralis, UniProt P08659); test: inhibition of purified Photinus pyralis luciferase – biochemical, luminescence, dose response (AID 1891)
Luciferin 4-monooxygenase, sequence (P08659 whole entry): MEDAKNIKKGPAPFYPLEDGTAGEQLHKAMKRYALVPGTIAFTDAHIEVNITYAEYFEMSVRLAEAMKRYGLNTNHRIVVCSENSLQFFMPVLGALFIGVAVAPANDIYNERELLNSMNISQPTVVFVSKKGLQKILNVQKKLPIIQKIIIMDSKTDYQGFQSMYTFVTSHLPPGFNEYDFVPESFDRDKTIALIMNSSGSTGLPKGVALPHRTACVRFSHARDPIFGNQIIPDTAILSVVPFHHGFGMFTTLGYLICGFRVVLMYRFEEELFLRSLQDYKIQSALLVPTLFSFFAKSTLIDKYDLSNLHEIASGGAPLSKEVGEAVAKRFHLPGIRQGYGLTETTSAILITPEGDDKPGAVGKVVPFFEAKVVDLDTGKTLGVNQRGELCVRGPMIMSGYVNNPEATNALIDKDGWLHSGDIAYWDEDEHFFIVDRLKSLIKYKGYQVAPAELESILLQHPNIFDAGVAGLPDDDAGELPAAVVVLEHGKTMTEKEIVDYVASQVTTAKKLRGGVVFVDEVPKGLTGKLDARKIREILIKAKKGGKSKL

[11] = biological target: Cytochrome P450 3A4 (Homo sapiens, UniProt P08684); conditions: Potency;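 also: confirmatory qHTS run detecting inhibitors and substrates of CYP3A4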
Cytochrome P450 3A4, sequence (P08684 whole entry): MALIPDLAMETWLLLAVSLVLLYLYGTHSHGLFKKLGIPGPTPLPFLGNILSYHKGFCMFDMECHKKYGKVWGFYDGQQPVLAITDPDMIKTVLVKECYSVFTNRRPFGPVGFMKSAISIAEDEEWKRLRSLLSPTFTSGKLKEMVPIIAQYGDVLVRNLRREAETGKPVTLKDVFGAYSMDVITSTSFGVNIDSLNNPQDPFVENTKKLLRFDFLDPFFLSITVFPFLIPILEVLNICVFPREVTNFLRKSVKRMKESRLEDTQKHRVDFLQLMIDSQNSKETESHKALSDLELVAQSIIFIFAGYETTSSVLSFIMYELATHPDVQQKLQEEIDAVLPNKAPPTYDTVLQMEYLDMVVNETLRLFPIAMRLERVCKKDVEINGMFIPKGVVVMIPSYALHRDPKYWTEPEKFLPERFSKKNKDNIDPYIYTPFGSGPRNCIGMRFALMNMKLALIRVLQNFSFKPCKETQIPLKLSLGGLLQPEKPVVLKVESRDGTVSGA

[12] = HEK-293T viability loss after treatment – luminescence, T-cell screen hits, cytotoxicity control for TCR NF-kB inhibitor project, dose response (AID 489026); format: functional, cell-based;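 also: cells exposed to compound about 14 hours before the viability readout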
[13] = biological target: Protein Wnt-3a (Mus musculus, UniProt P27467); test: antagonism of Wnt3a pathway luciferase reporter – Wnt-LIGHT cells, luminescence, selectivity assay for Gli-SUFU antagonist project, dose response (AID 651570); format: functional; conditions: read-out: IC50_Mean;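 also: Wnt-LIGHT reporter cells stimulated with conditioned medium from Wnt3a-producing cells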
Protein Wnt-3a, sequence (P27467 whole entry): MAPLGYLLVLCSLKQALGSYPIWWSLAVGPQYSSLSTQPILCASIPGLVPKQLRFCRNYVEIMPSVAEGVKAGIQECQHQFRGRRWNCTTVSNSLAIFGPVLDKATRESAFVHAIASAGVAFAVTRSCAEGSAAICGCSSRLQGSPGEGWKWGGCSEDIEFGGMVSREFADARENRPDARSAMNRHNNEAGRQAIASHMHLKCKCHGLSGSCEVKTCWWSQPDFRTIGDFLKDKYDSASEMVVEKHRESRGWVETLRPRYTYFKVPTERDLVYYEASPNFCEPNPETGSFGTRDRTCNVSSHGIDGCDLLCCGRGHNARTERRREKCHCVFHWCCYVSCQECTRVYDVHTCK

[14] = reduction of Shn3 3'UTR-driven luciferase in osteoblasts – cell-based, Clone20 osteoblasts, firefly luciferase, cherry-picked, dose response (AID 624132); format: functional;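 also: firefly luciferase luminescence from reporter carrying the Shn3 3'UTR in osteoblasts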
[15] = non-specific 3'UTR reporter inhibition in Clone20-Shn3RL – cell-based, Renilla luciferase, cherry-picked, counter-screen for Shn3 inhibitor project, dose response (AID 624133); format: functional
[16] = Luminescence Cell-Based Dose Retest to Confirm Inhibitors of Cancer Stem Cells. [Related pubchem assays (depositor defined):AID2717, AID2721]; format: functional; conditions: Homo sapiens
[17] = intracellular Trypanosoma cruzi inhibitors in host cells – cell-based, plate reader, cherry-pick samples, set 3, dose response (AID 651818); format: functional;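 also: compounds incubated with infected cells for about four days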

With `OCCNCc1cc(Br)ccc1OCc1ccc(F)cc1` the EC50 [1] was 1.88 µM (active).

In the case of `O=C(C(Cl)Cl)N1c2ccccc2OCC1c1ccccc1` (configuration not stated), the IC50 [2] is reported as > 20 µM (inactive), the EC50 [3] is reported as 13.8 µM (active) and the AC50 [4] is reported as 10 µM (active). The EC50 [5] was 1.25 µM (active), the AC50 [6] was 8.54 µM (active) and the IC50 [7] was 16.9 µM (active). The IC50 [8] was > 20 µM (inactive).

In the case of `CCN(CC)Cc1cc(CCNC(=O)c2ccc(Cl)cc2)ccc1O`, the EC50 [1] is reported as 4.73 µM (active).

For `CCCCC(=O)N(c1ccc(C(=O)O)cc1)c1nc(-c2ccc(Cl)cc2)c(CC)s1`, the EC50 [9] was > 112 µM (not active), the EC50 [1] was 10.6 µM (active) and the EC50 [10] was > 112 µM (not active).

For `CC(=O)C1CCC2C3CC(C)C4=CC(=O)CC[C@@]4(C)C3C(O)C[C@@]12C` (some centres not stated), the AC50 [11] was 31.6 µM (inconclusive).

With `CC[C@]1(O)CC(O[C@@H]2CC(N(C)C)C(O)C(C)O2)c2c(cc3c(c2O)C(=O)c2c(O)cccc2C3=O)C1C(=O)OC` (some centres not stated) the AC50 [11] was 39.8 µM (inconclusive).

With `CC(Sc1n[nH]c2c3ccccc3nc-2n1)C(=O)N(C)C1CCCCC1` (configuration not stated) the IC50 [2] was 6.67 µM (active), the EC50 [3] was 4.74 µM (active) and the AC50 [6] was 16.1 µM (active). For the same compound, the IC50 [7] was 6.41 µM (active) and the IC50 [8] was 12.9 µM (active).

With `CC(C)(C)OC(=O)NCCCCCc1cn(CC(=O)NCCCCCCCCCCC(=O)N2CCN(C(=O)OC(C)(C)C)CC2)nn1` the IC50 [12] was > 80 µM (inactive) and the IC50 [13] was 21.9 µM (inactive).

With `CC1CC(O)[C@]2(O)[C@]13CC(=O)OC[C@@]2(C)[C@@](C)(O)C(=O)C3` (some centres not stated) the AC50 [11] was 31.6 µM (inconclusive).

With `Cc1cccc(CCN2C(N(C)C)=NC[C@@H]2CC(C)C)c1` the AC50 [14] was 1.45 µM (active), the IC50 [13] was 9.13 µM (active) and the AC50 [15] was 8.04 µM (active).

In the case of `Nc1nc(/C(=C/CC(=O)O)C(=O)NC2C(=O)N3C(C(=O)O)=CCSC23)cs1` (configuration not stated), the AC50 [11] is reported as 31.6 µM (inconclusive).

With `Cc1nc(C2CCC3C4CCC5=CC(=O)CC[C@]5(C)C4CC[C@]23C)cs1` (some centres not stated) the IC50 [2] was 3.56 µM (active), the AC50 [16] was 6.32 µM (active) and the EC50 [3] was 2.24 µM (active). The IC50 [7] was 3.42 µM (active) and the IC50 [8] was 9.14 µM (active).

With `NC(=O)c1nsc(C(=O)N(Cc2ccccc2F)C(C(=O)NCC2CCCO2)c2ccc(F)cc2)c1N` (configuration not stated) the EC50 [1] was 0.473 µM (active).

With `COCCNc1nc2c(c(=O)n(C)c(=O)n2C)n1Cc1cccc(C(F)(F)F)c1` the IC50 [13] was 5.24 µM (active) and the AC50 [6] was 6.6 µM (active).

For `Cn1nc(CC(=O)NCc2ccc(C(F)(F)F)cc2)c2ccccc2c1=O`, the IC50 [13] was 1.09 µM (active).

In the case of `O=C(c1ccc(Cl)cc1)C1CCCN(C2CCSCC2)C1` (configuration not stated), the EC50 [1] is reported as 0.531 µM (active).

In the case of `C/C(=N\Nc1ccc(Cl)nn1)c1ccccc1O`, the IC50 [13] is reported as 50 µM (inactive).

For `COc1cc(/C=N/Nc2nc3c(c(=O)n(C)c(=O)n3C)n2Cc2ccccc2)ccc1OC(=O)c1ccco1`, the IC50 [2] was 5.98 µM (active), the EC50 [3] was 5.22 µM (active) and the IC50 [7] was 3.73 µM (active). The IC50 [8] was 12.3 µM (active).

For `C[C@@H]1CN([C@@H](C)CO)C(=O)Cc2cc(NC(=O)Nc3cccc4ccccc34)ccc2O[C@@H]1CN(C)Cc1ccc(Cl)c(Cl)c1`, the AC50 [17] was 3.21 µM (active).

In the case of `C[C@H](CO)N1C[C@H](C)[C@H](CN(C)Cc2ccc(C(F)(F)F)cc2)Oc2ccc(NC(=O)Nc3ccc(C(F)(F)F)cc3)cc2CC1=O`, the AC50 [17] is reported as 2.66 µM (active).

In the case of `COc1ccc(CN(C)C[C@H]2Oc3ccc(NC(=O)Cc4cn(C)c5ccccc45)cc3CC(=O)N([C@@H](C)CO)C[C@@H]2C)cc1`, the AC50 [17] is reported as 3.08 µM (active).

In the case of `C[C@@H]1CN([C@H](C)CO)C(=O)c2cccc(NS(=O)(=O)c3ccc(F)cc3)c2O[C@@H]1CN(C)Cc1ccc(C(=O)Nc2ccccc2N)cc1`, the AC50 [17] is reported as 2.86 µM (active).

For `C[C@H]1CN([C@@H](C)CO)C(=O)c2cccc(NC(=O)C3CC3)c2O[C@@H]1CN(C)Cc1ccc(Oc2ccccc2)cc1`, the AC50 [17] was 3.64 µM (active).

With `COC(=O)CC1C(C)(C)C(OC(C)=O)C2CC3=C4CC(=O)OC(c5ccoc5)[C@]4(C)CCC3[C@@]1(C)C2=O` (some centres not stated) the AC50 [11] was 1.58 µM (inconclusive).

Source: ChEMBL document CHEMBL1201862, “PubChem BioAssay data set” (2004)
